System: K-562 leukemia growth, % test/control
Test: Anticancer human tumor K-562 cell line growth inhibition;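 further: spheroids exposed to compounds for 7 days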;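 on viability, T/C: 100% = DMSO vehicle wells and lower values mean fewer viable cells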
Settings: spheroids with HUVEC and MSC; for IC50: curve of first compound; for viability, T/C: stronger effect = lower value
Method in brief: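 Multicellular complex spheroids of tumor cells with human endothelial cells (HUVEC) and mesenchymal stem cells; the LSD1 inhibitor iadademstat was combined with standard-of-care or investigational agents. Top concentration at or near clinical Cmax, half-log dilutions; final DMSO ≤0.25%.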

[1] = second compound 0.1 µM, first compound 0.0316 µM
[2] = second compound 0.1 µM, first compound 0.1 µM
[3] = second compound 0.1 µM, first compound 0.316 µM
[4] = second compound 0.1 µM, first compound 1 µM
[5] = second compound 0.316 µM, first compound 0.0316 µM
[6] = second compound 0.316 µM, first compound 0.1 µM
[7] = second compound 0.316 µM, first compound 0.316 µM
[8] = second compound 0.316 µM, first compound 1 µM
[9] = second compound 1 µM, first compound 0.0316 µM
[10] = second compound 1 µM, first compound 0.1 µM
[11] = second compound 1 µM, first compound 0.316 µM
[12] = second compound 1 µM, first compound 1 µM
[13] = second compound 3.16 µM, first compound 0.0316 µM
[14] = second compound 3.16 µM, first compound 0.1 µM
[15] = second compound 3.16 µM, first compound 0.316 µM
[16] = second compound 3.16 µM, first compound 1 µM
[17] = second compound 10 µM, first compound 0.0316 µM
[18] = second compound 10 µM, first compound 0.1 µM
[19] = second compound 10 µM, first compound 0.316 µM
[20] = second compound 10 µM, first compound 1 µM

CC(C)c1c(-c2ccccc2)nc2c(C#N)c[nH]n2c1=O + NC1CC1c1ccc(-c2cccc(O)c2)cc1
IC50 (second compound 0.1 µM): > 10000 nM
IC50 (second compound 0.316 µM): > 10000 nM
IC50 (second compound 1 µM): > 10000 nM
IC50 (second compound 3.16 µM): > 10000 nM
IC50 (second compound 10 µM): > 10000 nM
viability, T/C [1]: 105%
viability, T/C [2]: 108%
viability, T/C [3]: 102%
viability, T/C [4]: 107%
viability, T/C (second compound 0.1 µM, first compound 3.16 µM): 111%
viability, T/C (second compound 0.1 µM, first compound 10 µM): 106%
viability, T/C [5]: 102%
viability, T/C [6]: 103%
viability, T/C [7]: 102%
viability, T/C [8]: 105%
viability, T/C (second compound 0.316 µM, first compound 3.16 µM): 106%
viability, T/C (second compound 0.316 µM, first compound 10 µM): 98.9%
viability, T/C [9]: 97.8%
viability, T/C [10]: 103%
viability, T/C [11]: 95.5%
viability, T/C [12]: 101%
viability, T/C (second compound 1 µM, first compound 3.16 µM): 99.4%
viability, T/C (second compound 1 µM, first compound 10 µM): 96.4%
viability, T/C [13]: 102%
viability, T/C [14]: 97.7%
viability, T/C [15]: 100%
viability, T/C [16]: 97.2%
viability, T/C (second compound 3.16 µM, first compound 3.16 µM): 99.2%
viability, T/C (second compound 3.16 µM, first compound 10 µM): 95.9%
viability, T/C [17]: 99.4%
viability, T/C [18]: 96.1%
viability, T/C [19]: 96.5%
viability, T/C [20]: 98.3%
viability, T/C (second compound 10 µM, first compound 3.16 µM): 98.3%
viability, T/C (second compound 10 µM, first compound 10 µM): 92%

COc1cc(C2c3cc4c(cc3C(OC3OC5COC(C)OC5C(O)C3O)C3COC(=O)C23)OCO4)cc(OC)c1O (stereo not given) + NC1CCC(NC2CC2c2ccccc2)CC1
IC50 (second compound 0.1 µM): 24.2 nM
IC50 (second compound 0.316 µM): 25.9 nM
IC50 (second compound 1 µM): 27 nM
IC50 (second compound 3.16 µM): 27.5 nM
IC50 (second compound 10 µM): 26.8 nM
viability, T/C (second compound 0.1 µM, first compound 0.00949 µM): 86.3%
viability, T/C (second compound 0.1 µM, first compound 0.03 µM): 34.6%
viability, T/C (second compound 0.1 µM, first compound 0.0949 µM): 26.9%
viability, T/C (second compound 0.1 µM, first compound 0.3 µM): 35.2%
viability, T/C (second compound 0.1 µM, first compound 0.949 µM): 13.8%
viability, T/C (second compound 0.1 µM, first compound 3 µM): 3.12%
viability, T/C (second compound 0.316 µM, first compound 0.00949 µM): 87.3%
viability, T/C (second compound 0.316 µM, first compound 0.03 µM): 36%
viability, T/C (second compound 0.316 µM, first compound 0.0949 µM): 28.2%
viability, T/C (second compound 0.316 µM, first compound 0.3 µM): 36.1%
viability, T/C (second compound 0.316 µM, first compound 0.949 µM): 14%
viability, T/C (second compound 0.316 µM, first compound 3 µM): 3.11%
viability, T/C (second compound 1 µM, first compound 0.00949 µM): 86.8%
viability, T/C (second compound 1 µM, first compound 0.03 µM): 37.7%
viability, T/C (second compound 1 µM, first compound 0.0949 µM): 28.6%
viability, T/C (second compound 1 µM, first compound 0.3 µM): 35.5%
viability, T/C (second compound 1 µM, first compound 0.949 µM): 12.9%
viability, T/C (second compound 1 µM, first compound 3 µM): 3.58%
viability, T/C (second compound 3.16 µM, first compound 0.00949 µM): 87.5%
viability, T/C (second compound 3.16 µM, first compound 0.03 µM): 37%
viability, T/C (second compound 3.16 µM, first compound 0.0949 µM): 30.1%
viability, T/C (second compound 3.16 µM, first compound 0.3 µM): 33.8%
viability, T/C (second compound 3.16 µM, first compound 0.949 µM): 12.7%
viability, T/C (second compound 3.16 µM, first compound 3 µM): 3.14%
viability, T/C (second compound 10 µM, first compound 0.00949 µM): 83.2%
viability, T/C (second compound 10 µM, first compound 0.03 µM): 38.2%
viability, T/C (second compound 10 µM, first compound 0.0949 µM): 30.4%
viability, T/C (second compound 10 µM, first compound 0.3 µM): 26.7%
viability, T/C (second compound 10 µM, first compound 0.949 µM): 9.22%
viability, T/C (second compound 10 µM, first compound 3 µM): 2.85%

Nc1ncn(C2CC(O)C(CO)O2)c(=O)n1 (stereo not given) + NC1CCC(NC2CC2c2ccccc2)CC1
IC50 (second compound 0.1 µM): 695 nM
IC50 (second compound 0.316 µM): 770 nM
IC50 (second compound 1 µM): 640 nM
IC50 (second compound 3.16 µM): 396 nM
IC50 (second compound 10 µM): 69.5 nM
viability, T/C (second compound 0.1 µM, first compound 0.00316 µM): 102%
viability, T/C (second compound 0.1 µM, first compound 0.01 µM): 98.2%
viability, T/C [1]: 89.2%
viability, T/C [2]: 71.4%
viability, T/C [3]: 54.7%
viability, T/C [4]: 47.8%
viability, T/C (second compound 0.316 µM, first compound 0.00316 µM): 104%
viability, T/C (second compound 0.316 µM, first compound 0.01 µM): 100%
viability, T/C [5]: 90.3%
viability, T/C [6]: 71%
viability, T/C [7]: 56.4%
viability, T/C [8]: 48%
viability, T/C (second compound 1 µM, first compound 0.00316 µM): 103%
viability, T/C (second compound 1 µM, first compound 0.01 µM): 100%
viability, T/C [9]: 89.4%
viability, T/C [10]: 72.4%
viability, T/C [11]: 56.3%
viability, T/C [12]: 46.1%
viability, T/C (second compound 3.16 µM, first compound 0.00316 µM): 102%
viability, T/C (second compound 3.16 µM, first compound 0.01 µM): 99.5%
viability, T/C [13]: 88.1%
viability, T/C [14]: 68.4%
viability, T/C [15]: 50.8%
viability, T/C [16]: 45%
viability, T/C (second compound 10 µM, first compound 0.00316 µM): 89.3%
viability, T/C (second compound 10 µM, first compound 0.01 µM): 84.5%
viability, T/C [17]: 64.2%
viability, T/C [18]: 45%
viability, T/C [19]: 25.6%
viability, T/C [20]: 24.9%

Source: PubChem BioAssay AID1918948 (Molecular Pharmacology Branch, DTP, NCI, 2023)
